Results from ChEMBL document CHEMBL4706552, “Discovery of 4-methyl-N-(4-((4-methylpiperazin- 1-yl)methyl)-3-(trifluoromethyl)phenyl)-3-((6-(pyridin-3-yl)-1H-pyrazolo[3,4-d]pyrimidin-4-yl)-oxy)benzamide as a potent inhibitor of RET and its gatekeeper mutant” (Eur J Med Chem, 2020).
The source made the active and inactive calls. No cut-off for these calls is given here.

Columns and labels:
Mus musculus [1] = assay: In vivo inhibition of KIF5B-RET V804M mutant fusion protein in BALB/c mouse implanted with KIF5B-RET V804M mutant fusion protein expressing mouse BaF3 cells assessed as reduction in RET phosphorylation at 30 to 50 mg/kg, iv administered daily for 7 days and measured 4 hrs post last dose by Western blot analysis; format: functional, organism-based; conditions: dose 30-50 mg/kg, time 7.0 day
[2] = Antiproliferative activity against human SKGT4 cells measured after 48 hrs by MTS assay; format: functional
BaF3 [3] = assay: Inhibition of CCDC6-RET V804M mutant fusion protein (unknown origin) expressed in mouse BaF3 cells assessed as reduction in SHC phosphorylation at 10 to 500 nM measured after 4 hrs by Western blot analysis; format: cell-based; conditions: Homo sapiens, dose 10-500 nM
[4] = Tmax in Sprague-Dawley rat at 10 mg/kg, po; format: ADME, organism-based; conditions: in vivo
[5] = molecular target: T1, Coiled-coil domain-containing protein 6/Tyrosine-protein kinase receptor RET (Homo sapiens) (UniProt P07949+Q16204); assay: Inhibition of CCDC6-RET fusion protein (unknown origin) expressed in mouse BaF3 cells assessed as reduction in cell proliferation measured after 48 hrs by MTS assay; format: cell-based
T1 sequence (P07949 29-1114 limits assumed): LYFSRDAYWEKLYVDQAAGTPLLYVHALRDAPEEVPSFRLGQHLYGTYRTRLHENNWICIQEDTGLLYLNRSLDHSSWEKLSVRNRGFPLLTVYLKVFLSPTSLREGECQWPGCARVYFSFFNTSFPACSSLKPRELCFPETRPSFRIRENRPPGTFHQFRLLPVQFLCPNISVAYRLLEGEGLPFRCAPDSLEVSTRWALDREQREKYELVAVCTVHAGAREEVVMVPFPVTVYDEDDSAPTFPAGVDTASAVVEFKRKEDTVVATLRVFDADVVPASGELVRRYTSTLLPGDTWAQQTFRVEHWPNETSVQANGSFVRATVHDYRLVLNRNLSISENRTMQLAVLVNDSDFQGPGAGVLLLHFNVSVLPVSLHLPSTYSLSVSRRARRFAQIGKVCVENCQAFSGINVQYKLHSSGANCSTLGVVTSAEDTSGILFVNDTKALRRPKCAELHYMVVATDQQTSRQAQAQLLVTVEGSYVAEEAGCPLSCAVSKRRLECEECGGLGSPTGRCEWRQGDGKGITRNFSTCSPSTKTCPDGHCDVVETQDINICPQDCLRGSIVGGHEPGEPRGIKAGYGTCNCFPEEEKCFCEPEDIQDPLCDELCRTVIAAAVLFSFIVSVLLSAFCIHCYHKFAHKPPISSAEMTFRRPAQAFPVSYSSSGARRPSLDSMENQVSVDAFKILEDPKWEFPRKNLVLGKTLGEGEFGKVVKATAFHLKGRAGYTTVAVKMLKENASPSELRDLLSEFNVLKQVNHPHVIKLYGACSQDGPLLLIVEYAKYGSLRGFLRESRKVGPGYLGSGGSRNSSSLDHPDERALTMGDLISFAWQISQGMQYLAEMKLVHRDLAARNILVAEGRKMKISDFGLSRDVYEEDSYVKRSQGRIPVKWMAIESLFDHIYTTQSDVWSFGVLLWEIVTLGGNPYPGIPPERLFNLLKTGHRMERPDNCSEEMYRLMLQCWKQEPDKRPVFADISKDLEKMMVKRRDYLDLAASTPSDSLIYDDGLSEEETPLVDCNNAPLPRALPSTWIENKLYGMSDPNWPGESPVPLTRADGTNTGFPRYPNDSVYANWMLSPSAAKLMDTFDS
T1 sequence (Q16204 2-474 partner limits assumed): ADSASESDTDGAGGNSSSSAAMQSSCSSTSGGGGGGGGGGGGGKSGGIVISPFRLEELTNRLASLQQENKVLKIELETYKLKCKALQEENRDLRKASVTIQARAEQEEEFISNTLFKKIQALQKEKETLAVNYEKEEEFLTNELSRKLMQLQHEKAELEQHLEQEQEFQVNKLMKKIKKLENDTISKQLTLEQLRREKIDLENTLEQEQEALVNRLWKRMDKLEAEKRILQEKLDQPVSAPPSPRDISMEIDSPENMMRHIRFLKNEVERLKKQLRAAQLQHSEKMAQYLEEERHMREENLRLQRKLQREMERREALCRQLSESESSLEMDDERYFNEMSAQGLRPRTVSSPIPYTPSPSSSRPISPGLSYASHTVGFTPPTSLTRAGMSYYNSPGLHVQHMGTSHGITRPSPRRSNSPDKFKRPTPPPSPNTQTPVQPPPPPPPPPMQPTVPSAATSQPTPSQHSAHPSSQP

[6] = molecular target: Proto-oncogene tyrosine-protein kinase receptor Ret (Homo sapiens, UniProt P07949, V804M); assay: Inhibition of recombinant human N-terminal GST-HIS6 fused RET V804M mutant C-terminal domain (H658 to S1114 residues) expressed in Sf9 insect cells using TRK-C-derived peptide as substrate in presence of [33P]-ATP by filter binding assay
[7] = Oral bioavailability in Sprague-Dawley rat at 10 mg/kg; format: ADME, organism-based; conditions: in vivo
[8] = Toxicity in BALB/c mouse implanted with KIF5B-RET fusion protein expressing mouse BaF3 cells assessed as body weight loss at 30 to 50 mg/kg, iv administered daily for 7 days measured daily during compound dosing; format: organism-based; conditions: in vivo, 168 h, dose 30-50 mg/kg, time 7 day
[9] = molecular target: Proto-oncogene tyrosine-protein kinase receptor Ret (Homo sapiens, UniProt P07949, M918T); assay: Inhibition of recombinant human N-terminal GST-HIS6 fused RET M918T mutant C-terminal domain (H658 to S1114 residues) expressed in Sf9 insect cells using TRK-C-derived peptide as substrate in presence of [33P]-ATP by filter binding assay
[10] = system: Proto-oncogene tyrosine-protein kinase receptor Ret (Homo sapiens), P07949 [V804M]; assay: Binding affinity to wild-type human partial length RET V804M mutant (E713 to D1014 residues) expressed in bacterial expression system assessed as residual binding level at 1 uM by kinomescan method relative to control
[11] = molecular target: T2, Proto-oncogene tyrosine-protein kinase receptor Ret (Homo sapiens, UniProt P07949); assay: Inhibition of RET in human LC-2-ad cells assessed as reduction in SHC phosphorylation; format: cell-based
T2 sequence (P07949 whole entry): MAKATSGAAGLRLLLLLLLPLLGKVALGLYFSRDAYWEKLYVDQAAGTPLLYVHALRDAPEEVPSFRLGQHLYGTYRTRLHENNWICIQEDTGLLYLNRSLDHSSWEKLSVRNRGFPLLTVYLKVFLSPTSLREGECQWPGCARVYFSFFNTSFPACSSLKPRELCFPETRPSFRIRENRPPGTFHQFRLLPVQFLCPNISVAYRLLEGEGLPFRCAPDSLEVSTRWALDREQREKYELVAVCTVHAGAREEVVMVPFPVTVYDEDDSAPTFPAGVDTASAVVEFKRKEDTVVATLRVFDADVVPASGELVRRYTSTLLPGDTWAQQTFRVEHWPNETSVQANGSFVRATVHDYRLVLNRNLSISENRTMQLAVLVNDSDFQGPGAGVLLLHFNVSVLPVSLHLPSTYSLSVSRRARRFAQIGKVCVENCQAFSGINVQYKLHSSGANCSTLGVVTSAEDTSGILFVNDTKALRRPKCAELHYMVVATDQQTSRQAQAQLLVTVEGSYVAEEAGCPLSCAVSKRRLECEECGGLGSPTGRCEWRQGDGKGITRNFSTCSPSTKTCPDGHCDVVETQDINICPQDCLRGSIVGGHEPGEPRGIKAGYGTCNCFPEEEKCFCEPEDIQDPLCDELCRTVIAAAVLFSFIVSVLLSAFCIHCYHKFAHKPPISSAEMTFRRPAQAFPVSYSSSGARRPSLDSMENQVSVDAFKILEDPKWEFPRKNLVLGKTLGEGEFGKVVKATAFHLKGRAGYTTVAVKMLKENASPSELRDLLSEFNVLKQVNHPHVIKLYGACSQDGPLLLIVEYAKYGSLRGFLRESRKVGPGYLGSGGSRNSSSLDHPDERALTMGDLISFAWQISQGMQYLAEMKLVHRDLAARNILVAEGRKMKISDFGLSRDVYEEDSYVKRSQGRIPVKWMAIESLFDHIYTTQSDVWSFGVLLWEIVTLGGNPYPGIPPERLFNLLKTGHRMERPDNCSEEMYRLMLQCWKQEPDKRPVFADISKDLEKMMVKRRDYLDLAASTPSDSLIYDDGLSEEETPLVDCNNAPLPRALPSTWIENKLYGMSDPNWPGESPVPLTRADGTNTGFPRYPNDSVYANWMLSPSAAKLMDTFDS

[12] = molecular target: T2, Proto-oncogene tyrosine-protein kinase receptor Ret; assay: Inhibition of RET phosphorylation in human LC-2-ad cells; format: cell-based
[13] = Toxicity in BALB/c mouse implanted with KIF5B-RET V804M mutant fusion protein expressing mouse BaF3 cells assessed as body weight loss at 30 to 50 mg/kg, iv administered daily for 7 days measured daily during compound dosing; format: organism-based; conditions: in vivo, 168 h, dose 30-50 mg/kg, time 7 day
[14] = molecular target: T3, Kinesin-1 heavy chain/ Tyrosine-protein kinase receptor RET (Homo sapiens) (UniProt P07949+P33176); assay: Inhibition of KIF5B-RET fusion protein (unknown origin) expressed in mouse BaF3 cells assessed as reduction in RET autophosphorylation at 50 nM measured after 4 hrs by Western blot analysis; format: cell-based
T3 sequence (P07949 29-1114 limits assumed): as the sequence (P07949 29-1114 limits assumed) above
T3 sequence (P33176 2-963 partner limits assumed): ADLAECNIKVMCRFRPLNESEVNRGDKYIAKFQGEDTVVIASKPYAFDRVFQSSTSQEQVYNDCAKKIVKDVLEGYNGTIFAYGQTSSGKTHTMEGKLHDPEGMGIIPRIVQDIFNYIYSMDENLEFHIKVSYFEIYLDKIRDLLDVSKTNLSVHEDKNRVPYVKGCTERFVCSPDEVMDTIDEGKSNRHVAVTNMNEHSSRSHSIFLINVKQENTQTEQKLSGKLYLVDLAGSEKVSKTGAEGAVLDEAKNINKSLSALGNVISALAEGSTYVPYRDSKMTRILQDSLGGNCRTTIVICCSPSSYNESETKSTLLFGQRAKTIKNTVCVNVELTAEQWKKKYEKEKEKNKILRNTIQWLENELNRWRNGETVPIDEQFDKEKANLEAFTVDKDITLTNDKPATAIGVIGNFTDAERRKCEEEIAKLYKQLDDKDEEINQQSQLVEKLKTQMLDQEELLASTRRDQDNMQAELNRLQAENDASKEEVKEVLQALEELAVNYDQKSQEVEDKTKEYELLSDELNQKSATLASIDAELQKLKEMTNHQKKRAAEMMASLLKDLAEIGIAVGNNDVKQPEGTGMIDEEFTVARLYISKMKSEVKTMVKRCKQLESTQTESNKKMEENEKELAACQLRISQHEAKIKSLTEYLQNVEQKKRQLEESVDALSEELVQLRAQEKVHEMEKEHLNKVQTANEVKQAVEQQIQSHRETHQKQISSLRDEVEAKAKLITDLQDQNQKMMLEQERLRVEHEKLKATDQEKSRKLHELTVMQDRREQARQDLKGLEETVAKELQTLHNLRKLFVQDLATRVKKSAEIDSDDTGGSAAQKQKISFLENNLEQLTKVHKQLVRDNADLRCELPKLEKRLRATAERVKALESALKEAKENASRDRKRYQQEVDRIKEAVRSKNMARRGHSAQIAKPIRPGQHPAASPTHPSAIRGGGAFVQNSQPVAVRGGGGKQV

[15] = molecular target: T1, Coiled-coil domain-containing protein 6/Tyrosine-protein kinase receptor RET (Homo sapiens); assay: Inhibition of CCDC6-RET fusion protein (unknown origin) expressed in mouse BaF3 cells assessed as reduction in SHC phosphorylation at 10 to 500 nM measured after 4 hrs by Western blot analysis; format: cell-based; conditions: dose 10-500 nM
KYSE-450 = assay: Antiproliferative activity against human KYSE-450 cells at 3.3 uM measured after 48 hrs by MTS assay; format: functional; conditions: read-out: GI
BaF3 [16] = assay: Inhibition of CCDC6-RET V804M mutant fusion protein (unknown origin) expressed in mouse BaF3 cells assessed as reduction in cell proliferation measured after 48 hrs by MTS assay; format: cell-based; conditions: Homo sapiens
A-375 = assay: Antiproliferative activity against human A-375 cells measured after 48 hrs by MTS assay; format: functional
A549 = assay: Antiproliferative activity against human A549 cells measured after 48 hrs by MTS assay; format: functional
[17] = molecular target: T3, Kinesin-1 heavy chain/ Tyrosine-protein kinase receptor RET (Homo sapiens); assay: Inhibition of KIF5B-RET fusion protein (unknown origin) expressed in mouse BaF3 cells assessed as reduction in cell proliferation measured after 48 hrs by MTS assay; format: cell-based
BGC-823 = assay: Antiproliferative activity against human BGC-823 cells at 3.3 uM measured after 48 hrs by MTS assay; format: functional; conditions: read-out: GI
BaF3 [18] = assay: Inhibition of CCDC6-RET V804M mutant fusion protein (unknown origin) expressed in mouse BaF3 cells assessed as reduction in AKT phosphorylation at 10 to 500 nM measured after 4 hrs by Western blot analysis; format: cell-based; conditions: Homo sapiens, dose 10-500 nM
[19] = AUC (0 to infinity) in Sprague-Dawley rat at 1 mg/kg, iv; format: ADME, organism-based; parameters: route intravenous, time infinity, dose 1 mg/kg; conditions: in vivo
[20] = molecular target: T2, Proto-oncogene tyrosine-protein kinase receptor Ret; assay: Binding affinity to wild-type human partial length RET (E713 to D1014 residues) expressed in bacterial expression system assessed as residual binding level at 1 uM by kinomescan method relative to control
[21] = Half life in Sprague-Dawley rat at 1 mg/kg, iv; format: ADME, organism-based; conditions: in vivo
[22] = molecular target: Kinesin-1 heavy chain/ Tyrosine-protein kinase receptor RET (Homo sapiens, UniProt P07949); assay: Inhibition of KIF5B-RET fusion protein (unknown origin) by radiometric assay
[23] = system: Kinesin-1 heavy chain/ Tyrosine-protein kinase receptor RET (Homo sapiens), P07949+P33176 [V804M]; assay: Inhibition of KIF5B-RET V804M mutant fusion protein (unknown origin) expressed in mouse BaF3 cells assessed as reduction in ERK phosphorylation at 500 nM measured after 4 hrs by Western blot analysis; format: cell-based
[24] = system: Kinesin-1 heavy chain/ Tyrosine-protein kinase receptor RET (Homo sapiens), P07949+P33176 [V804M]; assay: Inhibition of KIF5B-RET V804M mutant fusion protein (unknown origin) expressed in mouse BaF3 cells assessed as reduction in cell proliferation measured after 48 hrs by MTS assay; format: cell-based
[25] = Cytotoxicity against mouse BaF3 cells assessed as reduction in cell proliferation measured after 48 hrs by MTS assay; format: cell-based
[26] = AUC (0 to t) in Sprague-Dawley rat at 1 mg/kg, iv; format: ADME, organism-based; parameters: dose 1 mg/kg; conditions: in vivo
[27] = AUC (0 to t) in Sprague-Dawley rat at 10 mg/kg, po; format: ADME, organism-based; parameters: dose 10 mg/kg; conditions: in vivo
Mus musculus [28] = assay: In vivo inhibition of KIF5B-RET fusion protein in BALB/c mouse implanted with KIF5B-RET fusion protein expressing mouse BaF3 cells assessed as reduction in SHC phosphorylation at 30 to 50 mg/kg, iv administered daily for 7 days and measured 4 hrs post last dose by Western blot analysis; format: functional, organism-based; conditions: dose 30-50 mg/kg, time 7.0 day
[29] = molecular target: T1, Coiled-coil domain-containing protein 6/Tyrosine-protein kinase receptor RET (Homo sapiens); assay: Inhibition of CCDC6-RET fusion protein in human LC-2-ad cells assessed as reduction in cell proliferation measured after 48 hrs by MTS assay; format: cell-based
[30] = Cmax in Sprague-Dawley rat at 1 mg/kg, iv; format: ADME, organism-based; parameters: route intravenous, dose 1 mg/kg; conditions: in vivo

## Cc1ccc(C(=O)Nc2ccc(CN3CCN(C)CC3)c(C(F)(F)F)c2)cc1Oc1nc(-c2cccnc2)nc2[nH]ncc12
Mus musculus [1]
  inhibition: Dose-dependent effect
[2]
  GI50: 5370 nM
BaF3 [3]
  inhibition: Active
[4]
  Tmax: 0.75 h
[5]
  GI50: 9 nM
[6]
  IC50: 7.86 nM
[7]
  bioavailability: 3%
[8]
  Activity: Non-Toxic
[9]
  IC50: 8.42 nM
[10]
  Activity: 0.25%
[11]
  inhibition: Active
[12]
  inhibition: Active
[13]
  Activity: Non-Toxic
[14]
  inhibition: Dose-dependent effect
[15]
  inhibition: Active
KYSE-450
  inhibition of growth at 3.3 µM: 39%
BaF3 [16]
  GI50: 45 nM
A-375
  GI50: 2950 nM
A549
  GI50: 3390 nM
[17]
  GI50: 17 nM
BGC-823
  inhibition of growth at 3.3 µM: 39%
BaF3 [18]
  inhibition: Active
[19]
  AUC(0-inf): 7010 ng·h/mL
[20]
  Activity: 0.05%
[21]
  half-life: 4.28 h
[22]
  IC50: 8.86 nM
[23]
  inhibition: Active
[24]
  GI50: 21 nM
[25]
  GI50 at 48 h: 8030 nM
[26]
  AUC(0-t): 6960 ng·h/mL
[27]
  AUC(0-t): 2110 ng·h/mL
Mus musculus [28]
  inhibition: Dose-dependent effect
[29]
  GI50: 38 nM
[30]
  Cmax: 6100 ng/mL
